The record followed here is ChEMBL document CHEMBL1150937, “Aeruginosin 103-A, a thrombin inhibitor from the cyanobacterium Microcystis viridis” (J Nat Prod, 1998).

The target of one test is Plasminogen (Homo sapiens, UniProt P00747). The experiment in a line: Inhibition of plasmin.
A further test addresses Prothrombin (Homo sapiens, UniProt P00734). In words: Inhibition of thrombin.
The nature of test [1]: Inhibition of trypsin.

What is called IC50 is the concentration that gives 50% inhibition. Low readings indicate inhibition by little substance, high ones a need for much substance.

Structures are written as SMILES. Values after ≈ are worked out from the molar mass of the structure shown.

Plasminogen, sequence (P00747 97-580 limits assumed): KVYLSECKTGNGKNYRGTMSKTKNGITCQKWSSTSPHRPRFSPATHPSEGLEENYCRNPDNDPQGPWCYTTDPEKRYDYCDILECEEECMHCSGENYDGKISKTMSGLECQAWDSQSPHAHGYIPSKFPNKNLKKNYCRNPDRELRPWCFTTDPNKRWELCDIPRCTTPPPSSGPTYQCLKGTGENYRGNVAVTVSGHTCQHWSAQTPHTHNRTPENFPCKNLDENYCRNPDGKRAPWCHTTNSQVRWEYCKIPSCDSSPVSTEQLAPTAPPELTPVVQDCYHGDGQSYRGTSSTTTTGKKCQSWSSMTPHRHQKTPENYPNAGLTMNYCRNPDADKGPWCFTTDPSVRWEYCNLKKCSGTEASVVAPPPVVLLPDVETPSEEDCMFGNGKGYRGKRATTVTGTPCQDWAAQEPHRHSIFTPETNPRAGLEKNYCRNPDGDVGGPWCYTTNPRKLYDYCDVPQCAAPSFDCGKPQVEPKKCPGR
Plasminogen, sequence (P00747 581-810 limits assumed): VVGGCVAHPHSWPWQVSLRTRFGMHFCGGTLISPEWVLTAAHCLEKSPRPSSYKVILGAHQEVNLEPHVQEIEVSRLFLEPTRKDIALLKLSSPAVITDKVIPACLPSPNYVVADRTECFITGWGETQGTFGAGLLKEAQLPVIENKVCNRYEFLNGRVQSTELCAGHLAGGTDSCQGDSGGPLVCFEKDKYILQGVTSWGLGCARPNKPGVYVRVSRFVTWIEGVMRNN

For `CCO[C@@H]1[C@@H](NC(=O)C2CC3CCC(O)CC3N2C(=O)[C@@H](Cc2ccc(O)cc2)NC(=O)[C@H](O)Cc2ccc(O)cc2)CCCN1C(=N)N` (stereo partly drawn), the IC50 is 99.9 µM on Plasminogen, 13.2 µM on Prothrombin and 51 µg/mL (≈ 74.9 µM) in test [1].
